Test results from patent publication US20080194646A1, “Methods For Avoiding Edema in the Treatment of Metabolic, Inflammatory, and Cardiovascular Disorders” (priority 2005, published 2008).
Read-outs that look alike come from different tables or passages of the source.

Legend:
[1] = target: cytochrome P450 2C9 (Homo sapiens, UniProt P11712); settings: comparison of enantiomers and racemate, cited from earlier work
[2] = test system: C57BL/6j ob/ob Mice; assay: glucose lowering activity of halofenate analogs in ob/ob mice (Example 14); assay type: in vivo; settings: 125 mg/kg oral gavage once a day for 1-3 days; Student unpaired t-test
Method: Male, 8-9 weeks old, C57BL/6J ob/ob mice were purchased from The Jackson Laboratory (Bar Harbor, Me., USA). Animals were housed (4-5 mice/cage) under standard laboratory conditions at 22±3° C. temperature and 50±20% relative humidity, and were maintained on a diet of Purina rodent chow and water ad libitum. Prior to treatment, blood was collected from the tail vein of each animal. Mice that had non-fasting plasma glucose levels between 250 and 500 mg/dl were used. Each treatment group consisted of 8-10 mice that were distributed so that the mean glucose levels were equivalent in each group at the start of the study. Mice were dosed orally by gavage once a day for 1-3 days with either vehicle, (−) halofenic acid, (+) analog 14, 29, 33, 34, 35, 36, 37, or 38 at 125 mg/kg or (−) analog 29, 36, 37 or 38 at 150 mg/kg. Compounds were delivered in a liquid formulation containing 5% (v/v) dimethyl sulfoxide (DMSO), 1% (v/v) tween 80 and 0.9% (w/v) methylcellulose. The gavage volume was 10 ml/kg. Blood samples were taken at 6 hours after the each dose and analyzed for plasma glucose. Food intake and body weight were measured daily. Plasma glucose concentrations were determined colorimetrically using glucose oxidase method (Sigma Chemical Co, St. Louis, Mo., USA). Significant difference between groups (comparing drug-treated to vehicle-treated) was evaluated using the Student unpaired t-test.

[3] = test system: C57BL/6j ob/ob Mice; assay: anti-diabetic activity in C57BL/6j ob/ob mice (Example 20); assay type: in vivo; settings: oral gavage once a day for 1-4 days
Method: The anti-diabetic activities of the compounds were evaluated in the C57BL/6j ob/ob Mice model. Male, 7-9 weeks old, C57BL/6J ob/ob mice were purchased from The Jackson Laboratory (Bar Harbor, Me., USA). Animals were housed (4-5 mice/cage) under standard laboratory conditions at 22±3° C. temperature and 50±20% relative humidity, and were maintained on a diet of Purina rodent chow and water ad libitum. Prior to treatment, blood was collected from the tail vein of each animal. Mice that had non-fasting plasma glucose levels between 250 and 500 mg/dl were used. Each treatment group consisted of 8-10 mice that were distributed so that the mean glucose levels were equivalent in each group at the start of the study. Mice were dosed orally by gavage once a day for 1-4 days with vehicle and one or more dose of test compound at a dose ranging from 5 to 125 mg/kg. Compounds were delivered in a liquid formulation containing 5% (v/v) dimethyl sulfoxide (DMSO), 1% (v/v) Tween 80® and 0.9% (w/v) methylcellulose. The gavage volume was 10 ml/kg. […] Food intake and body weight were measured daily. Plasma glucose concentrations were determined colorimetrically using a commercial glucose oxidase method (Sigma Chemical Co, St. Louis, Mo., USA). Significant difference between groups (comparing drug-treated to vehicle-treated) was evaluated using the Student unpaired t-test. Table 1 provides the relative potency of some selected compounds of the invention.

[4] = test system: C57BL/6j ob/ob Mice; assay: anti-diabetic activity in C57BL/6j ob/ob mice (Example 13); assay type: in vivo; settings: oral gavage once a day for 1-4 days; for Potency: glucose lowering, 5 to 125 mg/kg, plasma glucose 6 hours after each dose
Method: The anti-diabetic activities of the compounds were evaluated in the C57BL/6j ob/ob Mice model.
Male, 7-9 weeks old, C57BL/6J ob/ob mice were purchased from The Jackson Laboratory (Bar Harbor, Me., USA). Animals were housed (4-5 mice/cage) under standard laboratory conditions at 22±3° C. temperature and 50±20% relative humidity, and were maintained on a diet of Purina rodent chow and water ad libitum. Prior to treatment, blood was collected from the tail vein of each animal. Mice that had non-fasting plasma glucose levels between 250 and 500 mg/dl were used. Each treatment group consisted of 8-10 mice that were distributed so that the mean glucose levels were equivalent in each group at the start of the study. Mice were dosed orally by gavage once a day for 1-4 days with vehicle and one or more dose of test compound at a dose ranging from 5 to 125 mg/kg. Compounds were delivered in a liquid formulation containing 5% (v/v) dimethyl sulfoxide (DMSO), 1% (v/v) Tween 80® and 0.9% (w/v) methylcellulose. The gavage volume was 10 ml/kg. Blood samples were taken at 6 hours after the each dose and analyzed for plasma glucose. Food intake and body weight were measured daily. Plasma glucose concentrations were determined colorimetrically using a commercial glucose oxidase method (Sigma Chemical Co, St. Louis, Mo., USA). Significant difference between groups (comparing drug-treated to vehicle-treated) was evaluated using the Student unpaired t-test.
The following table summarizes the anti-diabetic effects of selected compounds of the present invention and provides their relative potency. […] For example, a compound at 25 mg/kg that lowered the animal glucose level from 400 mg/dL (vehicle group value) to 250 mg/dL, is assigned the potency of +++.

Chain of cytochrome P450 2C9 (P11712 whole entry): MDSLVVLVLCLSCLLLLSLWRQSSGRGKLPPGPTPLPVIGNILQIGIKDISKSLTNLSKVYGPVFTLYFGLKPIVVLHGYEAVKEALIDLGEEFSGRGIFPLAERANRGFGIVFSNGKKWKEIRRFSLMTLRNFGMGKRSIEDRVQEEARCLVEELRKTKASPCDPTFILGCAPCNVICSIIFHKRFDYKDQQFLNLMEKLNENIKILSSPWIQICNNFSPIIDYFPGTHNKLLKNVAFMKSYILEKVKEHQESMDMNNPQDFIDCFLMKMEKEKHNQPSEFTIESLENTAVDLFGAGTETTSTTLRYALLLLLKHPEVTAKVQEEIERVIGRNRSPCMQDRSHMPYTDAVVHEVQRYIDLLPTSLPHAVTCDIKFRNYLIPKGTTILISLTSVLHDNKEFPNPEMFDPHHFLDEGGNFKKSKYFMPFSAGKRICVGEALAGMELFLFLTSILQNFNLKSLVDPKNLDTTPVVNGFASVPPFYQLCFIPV

Row | Structure (SMILES) | Potency [4] | Insulin Level compared with vehicle [4] | further results
1 | O=C(O)C(Oc1cccc(C(F)(F)F)c1)c1ccc(Cl)cc1 (racemic) [racemic halofenic acid, 4-Chlorophenyl-(3-trifluoromethylphenoxy)-acetic Acid] | – | – | inhibition of cytochrome P450 2C9 [1]: found to inhibit cytochrome P450 2C9
2 | O=C(O)C(Oc1cccc(C(F)(F)F)c1)c1ccc(Cl)cc1 (single isomer, unassigned; (+)) [(+) enantiomer of halofenic acid, (+) 4-chlorophenyl-(3-trifluoromethylphenoxy)-acetic acid] | – | – | inhibition of cytochrome P450 2C9 [1]: quite potent
3 | O=C(O)C(Oc1cccc(C(F)(F)F)c1)c1ccc(Cl)cc1 (single isomer, unassigned; (-)) [(−)halofenic acid, (−) (3-trifluoromethylphenoxy) (4-chlorophenyl)acetic acid] | – | – | inhibition of cytochrome P450 2C9 ([1]; listed as (−) enantiomer of halofenic acid): about twenty-fold less active; plasma glucose concentrations vs vehicle [2]: significantly reduced plasma glucose concentrations at 6 hours
4 | CC(=O)NCCOC(=O)C(Oc1ccc(C(F)(F)F)cc1)c1ccc(C(F)(F)F)cc1 (stereo not shown) [Compound 145] | – | – | Insulin Level compared with vehicle [3]: Lower
5 | CC(=O)NCCOC(=O)C(Oc1ccccc1C(F)(F)F)c1ccc(C(F)(F)F)cc1 (stereo not shown) [Compound 146] | – | – | Insulin Level compared with vehicle [3]: Lower
6 | CC(=O)NCCOC(=O)C(Oc1cccc(C(F)(F)F)c1)c1ccccc1C(F)(F)F (stereo not shown) [Compound 147] | – | – | Insulin Level compared with vehicle [3]: Lower
7 | O=C(O)C(Oc1ccccc1-c1nc2ccccc2o1)c1ccc(Cl)cc1 (stereo not shown) [Compound I-1] | ++ (effective for glucose lowering at a dose of >25 mg/kg but <125 mg/kg) | Lower | –
8 | O=C(O)C(Oc1ccccc1-c1nc2ccccc2o1)c1cccc(C(F)(F)F)c1 (stereo not shown) [Compound I-3] | + (effective for glucose lowering at the dose of ≧125 mg/kg) | Lower | –
9 | O=C(O)C(Oc1ccc(C(F)(F)F)cc1-c1nc2ccccc2o1)c1cccc(C(F)(F)F)c1 (stereo not shown) [Compound I-89] | +++ (effective for glucose lowering at a dose of ≦25 mg/kg) | Lower | –
10 | O=C(O)C(Oc1ccc(Cl)cc1-c1nc2ccccc2o1)c1ccc(Cl)cc1 (stereo not shown) [Compound I-190] | +++ (effective for glucose lowering at a dose of ≦25 mg/kg) | Lower | –
11 | O=C(O)C(Oc1ccc(Cl)cc1-c1nc2ccccc2o1)c1cccc(C(F)(F)F)c1 (stereo not shown) [Compound I-191] | +++ (effective for glucose lowering at a dose of ≦25 mg/kg) | Lower | –
12 | COc1ccc(C(Oc2ccc(Cl)cc2-c2nc3ccccc3o2)C(=O)O)cc1 (stereo not shown) [Compound I-193] | +++ (effective for glucose lowering at a dose of ≦25 mg/kg) | Lower | –
13 | O=C(O)C(Oc1ccc(Cl)cc1-c1nc2ccccc2o1)c1cccc(Cl)c1 (stereo not shown) [Compound I-194] | +++ (effective for glucose lowering at a dose of ≦25 mg/kg) | Lower | –
14 | O=C(O)C(Oc1ccc(C(F)(F)F)cc1-c1nc2ccccc2o1)c1ccccc1 (stereo not shown) [Compound I-369] | +++ (effective for glucose lowering at a dose of ≦25 mg/kg) | Lower | –
15 | O=C(O)C(Oc1ccc(C(F)(F)F)cc1-c1nc2ccccc2o1)c1ccc(Cl)cc1 (stereo not shown) [Compound I-372] | +++ (effective for glucose lowering at a dose of ≦25 mg/kg) | Lower | –
16 | CC(Oc1ccc(C(F)(F)F)cc1-c1nc2ccccc2o1)(C(=O)O)c1ccccc1 (stereo not shown) [Ia-365] | +++ (effective for glucose lowering at a dose of ≦25 mg/kg) | Lower | –
17 | CC(Oc1ccc(C(F)(F)F)cc1-c1nc2ccccc2o1)(C(=O)O)c1ccccc1 (stereo not shown) [Ia-366] | +++ (effective for glucose lowering at a dose of ≦25 mg/kg) | – | –
